Measured values from PMC7065195 (2020).

Columns and labels:
[1] = system: poly dAdT–poly dAdT (poly(dA-dT)2, AT-DNA) (DNA, polymer) AT; experiment: UV thermal melting at 260 nm; conditions: Na+ (sodium cacodylate, I=0.05 M); pH 7.0; ratio r=[compound]/[polynucleotide]=0.1; per base
[2] = system: poly A–poly U (poly rA–poly rU, AU-RNA) (RNA, polymer) A/U; experiment: UV thermal melting at 260 nm; conditions: Na+ (sodium cacodylate, I=0.05 M); pH 7.0; ratio r=[compound]/[polynucleotide]=0.1; per base

For `Cc1cc(-c2ccc(-c3ccc(-c4cc(C)c(B(c5c(C)cc([N+](C)(C)C)cc5C)c5c(C)cc([N+](C)(C)C)cc5C)c(C)c4)s3)s2)cc(C)c1B(c1c(C)cc([N+](C)(C)C)cc1C)c1c(C)cc([N+](C)(C)C)cc1C`, the ΔTm [1] was “+10.0 ± 0.5 °C” and the ΔTm [2] was “+9.5 ± 0.5 °C”.
